Molecules are shown by their SMILES. Read-outs that look alike come from different tables or passages of the source.

The conditions of data set [1]: rcm bond, Hoveyda-Grubbs 1st generation catalyst, 1,2-dichloroethane, 83.0 °C.
A further data set can be described thus: in vitro. Conditions: human, Caco-2.
Data set [2] can be described thus: Oral pharmacokinetics in dog with and without ritonavir boosting. The format is in vivo, male Beagle dogs. To be noted: single oral 10 mg/kg, boosted with ritonavir (Norvir 100 mg capsule) vs non-boosted. Here is the method:
Oral pharmacokinetics of Compound nr. 9 in male Beagle dogs after a single dose at 10 mg/kg, using a formulation in 50% PEG400/water and the influence of “boosting” with 10 mg/kg ritonavir were investigated.
Six male Beagle dogs (body weight 8-10 kg) were randomly divided into 2 groups of 3 animals (boosted and non-boosted). No untreated or vehicle-treated control animals were included. […] Drinking water remained available throughout the experiment.
Dogs from the non-boosted group received a single oral 10 mg/kg dose of Compound nr. 9, formulated as a 5 mg/ml 50% PEG400/water. Dogs from the boosted group received a single soft capsule of Norvir® (ritonavir, 100 mg/capsule), about 30 minutes before single oral dosing with 10 mg/kg of Compound nr. 9. The drug formulations were administered by oral gavage, using a gastric tube.
A 3 ml blood sample was collected at 0.5 h 1 h, 2 h, 4 h, 6 h, 8 h and 24 hours after dosing of Compound nr. 9. Plasma concentrations were determined using HPLC-MS. Results are shown in the table 5 below, expressed as fold change in pharmacokinetic parameter of the boosted group as compared to the non-boosted group.

Data set [3] has as its system HCV replicons (NS3-NS5B regions of HCV type 1b) in Huh-7 luc/neo cells. The experiment in a line: HCV replicon assay (Huh-Luc, luciferase readout). To be noted: Hepatitis C virus, Huh-7, 72 h, three days incubation, luciferase activity. The format is cell-based. On the procedure: The in vitro antiviral activity against HCV of the compounds of formula (I) was tested in a cellular HCV replicon system based on Lohmann et al. (1999) Science 285:110-113, with the further modifications described by Krieger et al. (2001), Journal of Virology 75: 4614-4624, which is further exemplified in the examples section. This model, while not a complete infection model for HCV, is widely accepted as the most robust and efficient model of autonomous HCV RNA replication currently available. […] It will be appreciated that it is important to distinguish between compounds that specifically interfere with HCV functions from those that exert cytotoxic or cytostatic effects in the HCV replicon model, and as a consequence cause a decrease in HCV RNA or linked reporter enzyme concentration. Assays are known in the field for the evaluation of cellular cytotoxicity based for example on the activity of mitochondrial enzymes using fluorogenic redox dyes such as resazurin. Furthermore, cellular counter screens exist for the evaluation of non-selective inhibition of linked reporter gene activity, such as firefly luciferase. Appropriate cell types can be equipped by stable transfection with a luciferase reporter gene whose expression is dependent on a constitutively active gene promoter, and such cells can be used as a counter-screen to eliminate non-selective inhibitors.
The compounds of formula (I) were examined for activity in the inhibition of HCV RNA replication in a cellular assay. […] The cellular assay was based on a bicistronic expression construct, as described by Lohmann et al. (1999) Science vol. 285 pp. 110-113 with modifications described by Krieger et al. (2001) Journal of Virology 75: 4614-4624, in a multi-target screening strategy. In essence, the method was as follows.
The assay utilized the stably transfected cell line Huh-7 luc/neo (hereafter referred to as Huh-Luc). This cell line harbors an RNA encoding a bicistronic expression construct comprising the wild type NS3-NS5B regions of HCV type 1b translated from an Internal Ribosome Entry Site (IRES) from encephalomyocarditis virus (EMCV), preceded by a reporter portion (FfL-luciferase), and a selectable marker portion (neo^R, neomycine phosphotransferase). […]
The replicon cells were plated in 384 well plates in the presence of the test and control compounds which were added in various concentrations. Following an incubation of three days, HCV replication was measured by assaying luciferase activity (using standard luciferase assay substrates and reagents and a Perkin Elmer ViewLux™ ultraHTS microplate imager). […] The inhibitory activity of the compound on luciferase activity was monitored on the Huh-Luc cells, enabling a dose-response curve for each test compound.

For data set [4], the target named is T1, full-length hepatitis C NS3 protease enzyme with NS4A cofactor (HCV NS3/4A protease) (Hepatitis C virus genotype 1a, UniProt P27958).
T1 construct: full-length hepatitis C NS3 protease enzyme
T1 sequence (P27958 1027-1657, other chains not shown): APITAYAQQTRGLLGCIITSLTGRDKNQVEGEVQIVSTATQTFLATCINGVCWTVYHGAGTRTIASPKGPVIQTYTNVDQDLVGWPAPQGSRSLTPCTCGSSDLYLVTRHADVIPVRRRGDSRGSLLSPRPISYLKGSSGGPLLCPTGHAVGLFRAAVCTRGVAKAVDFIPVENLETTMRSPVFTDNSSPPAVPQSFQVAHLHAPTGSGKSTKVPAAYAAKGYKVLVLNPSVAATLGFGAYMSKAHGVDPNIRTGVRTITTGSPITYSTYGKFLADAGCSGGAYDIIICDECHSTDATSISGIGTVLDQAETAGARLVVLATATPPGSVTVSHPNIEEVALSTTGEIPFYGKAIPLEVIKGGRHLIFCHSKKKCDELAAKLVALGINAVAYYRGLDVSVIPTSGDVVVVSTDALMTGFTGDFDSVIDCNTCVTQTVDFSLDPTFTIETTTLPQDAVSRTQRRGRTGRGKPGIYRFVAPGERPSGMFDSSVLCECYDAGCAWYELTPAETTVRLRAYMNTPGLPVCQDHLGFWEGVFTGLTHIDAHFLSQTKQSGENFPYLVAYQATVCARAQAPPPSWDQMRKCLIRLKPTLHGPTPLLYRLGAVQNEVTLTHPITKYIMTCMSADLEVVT
The experiment in a line: Enzymatic inhibition assay of HCV NS3/4A protease. In kind it is biochemical. On the procedure:
[Landro, Biochemistry, 1997, 36(31): 9340-9348]. […] The solutions were stored at −20° C. between measurements.
[Liu, 1999 Analytical Biochemistry 267 331-335].

The nature of data set [5]: In vitro metabolic blocking by ritonavir in human liver microsomes. In kind it is in vitro ADME. To be noted: human liver microsomes 1 mg/ml. On the procedure: Different HCV NS3/4a protease inhibitors were tested in a metabolic blocking experiment using 3 μM test compound together with 10 μM ritonavir acting as booster. Test compounds and ritonavir were added to human liver microsomes (protein concentration 1 mg/ml) suspended in potassium phosphate buffer (pH=7.4), to get final reaction mixture concentrations of 3 μM test compound and 10 μM ritonavir. In the non-boosted parallel reactions, ritonavir was not added. Boiled human liver microsomes were used for blank experiments. After addition (in a 1:3 ratio) of a cofactor mixture consisting of β-nicotinamide adenine dinucleotide phosphate (β-NADP, 0.5 mg/ml, 653.2 μM), D-Glucose-6-phosphate (2 mg/ml, 7.1 mM), Glucose-6-phosphate dehydrogenase (1.5 U/ml) in 2% NaHCO3, the reaction mixture was incubated at 37° C. for 30 or 120 minutes after which the reaction was stopped by increasing the temperature to 95° C. Test compound concentrations were determined using HPLC-MS.
Values are percentages of test compound detected after the indicated incubation times as compared to the initial test compound concentration. Each value is the mean of the results of two independent experiments.

The conditions of data set [6]: reference compounds for permeability assay; cited from earlier work.

`CCOC(=O)C12CC1C=CCCCCCNC(=O)N1CC(Oc3cc(-c4nc(C(C)C)cs4)nc4cc(OC)ccc34)CC1C(=O)N2` (stereo not shown): the ring closure, yield of all isomers in data set [1] (from C=CCCCCCNC(=O)N1CC(Oc2cc(-c3nc(C(C)C)cs3)nc3cc(OC)ccc23)CC1C(=O)NC1(C(=O)OCC)CC1C=C, 2.2 mM, 16.0 h) is 57%.

`CCOC(=O)C12CC1C=CCCCCN(C)C(=O)N1CC(OC(=O)c3ccc([N+](=O)[O-])cc3)CC1C(=O)N2` (stereo not shown): the ring closure, yield of all isomers in data set [1] (from C=CCCCCN(C)C(=O)N1CC(OC(=O)c2ccc([N+](=O)[O-])cc2)CC1C(=O)NC1(C(=O)OCC)CC1C=C, 1.93 mM) was 74%.

In data set [1] (from C=CCCCCN(C)C(=O)N1CC(Oc2cc(-c3nc(C(C)C)cs3)nc3cc(OC)ccc23)CC1C(=O)NC1(C(=O)OCC)CC1C=C, 1.45 mM), `CCOC(=O)C12CC1C=CCCCCN(C)C(=O)N1CC(Oc3cc(-c4nc(C(C)C)cs4)nc4cc(OC)ccc34)CC1C(=O)N2` (stereo not shown) came in with a ring closure, yield of all isomers of 74%.

On to `COc1ccc2c(O[C@@H]3C[C@H]4C(=O)N[C@]5(C(=O)NS(=O)(=O)C6CC6)C[C@H]5/C=C\CCCCCNC(=O)N4C3)cc(-c3nc(C(C)C)cs3)nc2c1` [Compound 9, N-[18-[2-(4-isopropylthiazol-2-yl)-7-methoxyquinolin-4-yl-oxy]-2,15-dioxo-3,14,16-triazatricyclo[14.3.0.0^4,6]nonadec-7-ene-4-carbonyl]-(cyclopropyl)sulfonamide], for which the Papp at 120 min, 10 μM in the data set “in vitro” was found to be 11 ×10⁻⁶ cm/s. In data set [2], the “Fold increase in AUC when boosted with ritonavir” value was 55 fold and the “Fold increase in Cmax when boosted with ritonavir” value is given as 31 fold. In addition, the EC50 in data set [3] is 0.007 µM. Further, the Ki in data set [4] is 0.12 nM. Further, the “% Detected Compound, 30′, ritonavir” value in data set [5] (3 μM test compound + 10 μM ritonavir, 30 min) is given as 88%. In addition, in data set [5] (3 μM test compound + 10 μM ritonavir, 120 min), the “% Detected Compound, 120′, ritonavir” value is listed as 100%. Besides, the “% Detected Compound, 30′, No Booster” value in data set [5] (3 μM test compound, 30 min, no ritonavir) amounted to 44%. In data set [5] (3 μM test compound, 120 min, no ritonavir), the “% Detected Compound, 120′, No Booster” value worked out at 0%.

On to `COc1ccc2c(O[C@@H]3C[C@H]4C(=O)N[C@]5(C(=O)NS(=O)(=O)C6CC6)C[C@H]5/C=C\CCCCNC(=O)N4C3)cc(-c3nc(C(C)C)cs3)nc2c1` [Compound 26, Cyclopropanesulphonic acid {17-[2-(4-isopropylthiazol-2-yl)-7-methoxyquinolin-4-yloxy]-2,14-dioxo-3,13,15-triaza-tricyclo[13.3.0.0^4,6]-octadec-7-ene-4-carbonyl}-amide], for which the Papp at 120 min, 10 μM in “in vitro” worked out at 3.6 ×10⁻⁶ cm/s. In data set [3], this compound gave a half-maximal effective concentration (EC50) of 0.0064 µM. In data set [4], this compound gave a Ki of 0.4 nM.

With `COc1ccc2c(O[C@@H]3C[C@H]4C(=O)N[C@]5(C(=O)NS(=O)(=O)C6(C)CC6)C[C@H]5/C=C\CCCCNC(=O)N4C3)cc(-c3nc(C(C)C)cs3)nc2c1` [Compound 28, 1-Methyl-cyclopropanesulphonic acid [17-[2-(4-isopropyl-thiazol-2-yl)-7-methoxyquinolin-4-yloxy]-2,14-dioxo-3,13,15-triaza-tricyclo-[13.3.0.0^4,6]octadec-7-ene-4-carbonyl]-amide], in “in vitro”, the Papp at 120 min, 10 μM was 8.6 ×10⁻⁶ cm/s. This compound also yielded a concentration for a half-maximal effect (EC50) in data set [3] of 0.0023 µM. This compound also gave a Ki in data set [4] of 0.3 nM.

In “in vitro”, `COc1ccc2c(O[C@@H]3C[C@H]4C(=O)N[C@]5(C(=O)NS(=O)(=O)C6(C)CC6)C[C@H]5/C=C\CCCCCNC(=O)N4C3)cc(-c3nc(C(C)C)cs3)nc2c1` [Compound 33, 1-Methyl-cyclopropanesulphonic acid [18-[2-(4-isopropyl-thiazol-2-yl)-7-methoxyquinolin-4-yloxy]-2,15-dioxo-3,14,16-triaza-tricyclo-[14.3.0.0^4,6]nonadec-7-ene-4-carbonyl]-amide] returned a Papp at 120 min, 10 μM of 31 ×10⁻⁶ cm/s. The compound further registered an EC50 in data set [3] of 0.0036 µM. This compound also registered an inhibition constant Ki in data set [4] of 0.3 nM.

Regarding `N[C@@H](Cc1ccccc1)C(=O)O` [L-Phenylalanine], the “% absorption in man” value in data set [6] is 100%.

The values above are taken from patent US8008251B2, “Macrocyclic inhibitors of hepatitis C virus” (Tibotec Pharmaceuticals Ltd., priority 2005, dated 2011).
